Assay results taken from publication PMC6271988, “New Potentially Active Pyrazinamide Derivatives Synthesized Under Microwave Conditions” (Molecules, 2014).

Key:
[1] = Lipophilicity HPLC determination (logk); type: physicochemical; conditions: HPLC capacity factor, C18, MeOH 70%/H2O 30%, 30 °C
[2] = system: Staphylococcus epidermidis; assay: Antibacterial in vitro screening, microdilution broth method; type: cell-based; conditions: 80% inhibition of control
[3] = system: PET in spinach chloroplasts; assay: Photosynthetic electron transport (PET) inhibition, DCPIP photoreduction; type: biochemical, Spinacia oleracea L.; conditions: DCPIP photoreduction
Procedure: The inhibition of photosynthetic electron transport (PET) in spinach chloroplasts was determined spectrophotometrically (Genesys 6, Thermo Scientific, Madison, WI, USA) using an artificial electron acceptor 2,6-dichlorophenol-indophenol (DCPIP). The rate of photosynthetic electron transport was monitored as a photoreduction of DCPIP. Chloroplasts were prepared from Spinacia oleracea L.. The measurements were carried out in phosphate buffer (0.02 mol/L, pH 7.2) containing sucrose (0.4 mol/L), MgCl2 (0.005 mol/L) and NaCl (0.015 mol/L). The chlorophyll concentration was 30 mg/L and the samples were irradiated (~100 W/m^2 with 10 cm distance) with a halogen lamp (250 W). […] The studied compound were dissolved in DMSO due to their limited water solubility. […] The efficiency of studied compounds was expressed as 50% inhibition concentration relative to the untreated control. The standard for these measurements was DCMU (Diurone®).

[4] = system: spectrum of fungi tested (8 fungal strains); assay: Antifungal evaluation, summary over the fungi tested; type: cell-based; conditions: fungi tested, less active than the standards; read-out: IC80 antifungal
Procedure: Antifungal evaluation was also accomplished with microdilution broth method. On the contrary, there was used RPMI 1640 broth with glutamine as medium and conditions were humid and dark atmosphere, pH 7.0 (adjusted with 0.165 M morpholinepropanesulfonic acid, MOPS) and 35 °C. 8 fungal strains were used (Candida albicans ATCC 44859, Candida tropicalis 156, Candida krusei E28, Candida glabrata 20/I, Trichosporon asahii 1188, Aspergillus fumigatus 231, Lichtheimia corymbifera 272, Trichophyton mentagrophytes 445) together with four antimycotic standards amphotericin B, voriconazole, nystatin and fluconazole.

[5] = system: aromatic amino acids of photosynthetic proteins in spinach chloroplasts; assay: Fluorescence emission spectra of aromatic amino acids in chloroplast suspension; design: species or system Spinacia oleracea L.; conditions: c = 0, 6, 24 and 48 μmol/L; excitation 275 nm; chlorophyll 10 mg/L
Procedure: The emission fluorescence spectra of aromatic amino acids were recorded on the fluorescence spectrophotometer F-2000 (Hitachi, Tokyo, Japan). The samples of chloroplast suspensions with and without studied inhibitor were excited at wavelength of 275 nm, excitation slit 20 nm and emission slit 10 nm. The samples were kept in the dark for 2 min prior to the measurement. The phosphate buffer used for dilution of the chloroplast suspension was the same as described above. The compounds were added to chloroplast suspension in DMSO solution due to low aqueous solubility. The DMSO concentration in all samples was the same as in the control (10%). The chlorophyll concentration in chloroplast suspension was 10 mg/L.

In the case of CCCCCCNc1nccnc1C(N)=O [Compound 7, 3-(Hexylamino)pyrazine-2-carboxamide], the logk [1] is reported as 0.6860, the IC80 [2] is reported as under 250 µM and the IC50 [3] is reported as 32.9 µM. The IC80 [4] was at least 250 µM and the “Quenching of aromatic amino acid fluorescence at 334 nm” value [5] was “increased with increasing concentration”.
